This note sets out measurements from patent US20090105278A1, “Selective inhibitors of human corticosteroid syntheses” (Universitat Des Saarlandes, priority 2004, published 2009).

Where a name gives a salt, the structure may show the parent alone.

Tested on in one data set: not given
Test: not given
Settings: not given
`Clc1ccc2c(c1)CC/C2=C/c1cccnc1` (as salt: hydrochloride) [Compound 7b, 3-[(Z)-(5-Chloro-2,3-dihydro-1H-indane-1-ylidene)methyl]pyridine Hydrochloride] came in with a melting point of 238 °C.

For `COc1cc2c(cc1OC)/C(=C/c1ccncc1)CCC2.Cl`, the melting point worked out at 197 °C.

For the molecule `Fc1ccc2c(c1)CC/C2=C\c1cccc2cnccc12` (as salt: hydrochloride) [Compound 30a, 5-[(E)-(5-Fluoro-2,3-dihydro-1H-indane-1-ylidene)methyl]isoquinoline Hydrochloride], the melting point was 234 °C.

Take `C(=C1\CCc2ccccc21)/c1cnc[nH]1` (as salt: oxalate) [Compound 42b, 5-[(Z)-2,3-Dihydro-1H-ind-1-ylidenemethyl]-1H-imidazolium oxalate]: the melting point was found to be 196 °C.

`Brc1ccc2c(c1)CC/C2=C/c1cccnc1` (as salt: hydrochloride) [Compound 9b, 3-[(Z)-(5-Bromo-2,3-dihydro-1H-indane-1-ylidene)methyl]pyridine Hydrochloride] gave a melting point of 243 °C.

In turn, `COc1cc2c(cc1OC)/C(=C/c1cccnc1)CCC2.Cl` returned a melting point of 197 °C.

Regarding `COc1ccc2c(c1)CC/C2=C/c1cccnc1` (as salt: hydrochloride) [Compound 11b, 3-[(Z)-(5-Methoxy-2,3-dihydro-1H-indane-1-ylidene)methyl]pyridine Hydrochloride], the melting point was 220 °C.

`Clc1ccc2c(c1)CC/C2=C\c1ccncc1` (as salt: hydrochloride) [Compound 8a, 4-[(E)-(5-Chloro-2,3-dihydro-1H-indane-1-ylidene)methyl]pyridine Hydrochloride] returned a melting point of 213 °C.

In turn, `Clc1ccc2c(c1)CC/C2=C\c1cccnc1` (as salt: hydrochloride) [Compound 7a, 3-[(E)-(5-Chloro-2.3-dihydro-1H-indane-1-ylidene)methyl]pyridine Hydrochloride] registered a melting point of 234 °C.

In turn, `Fc1ccc2c(c1)CC/C2=C/c1cccnc1` (as salt: hydrochloride) [Compound 5b, 3-[(Z)-(5-Fluoro-2,3-dihydro-1H-indane-1-ylidene)methyl]pyridine Hydrochloride] returned a melting point of 245 °C.

`c1cncc(-c2ccc3cccc4c3c2CC4)c1` (as salt: salt) [Compound 50, 3-(1,2-Dihydroacenaphthylene-3-yl)pyridine] registered a melting point of 208 °C.

In turn, `Cl.N#Cc1ccc2c(c1)/C(=C/c1cnc[nH]1)CCC2` came in with a melting point of 217 °C.

In turn, `C(=C1/CCc2ccccc21)/c1ccncc1` (as salt: oxalate) [Compound 2a, 4-[(E)-2,3-Dihydro-1H-indane-1-ylidenemethyl]pyridine Oxalate] showed a melting point of 167 °C.

For `Fc1ccc2c(c1)CC/C2=C\c1cnc[nH]1` (as salt: chloride) [Compound 47a, 5-[(E)-(5-Fluoro-2,3-dihydro-1H-indene-1-ylidenemethyl]-1H-imidazolium chloride], the melting point amounted to 245 °C.

Consider `C(=C1/CCc2ccccc21)/c1cnc[nH]1` (as salt: hydrochloride) [Compound 42a, 5-[(E)-2,3-Dihydro-1H-indane-1-ylidenemethyl]-1H-imidazole], for which the melting point was 148 to 151 °C.

In turn, `Brc1ccc2c(c1)CC/C2=C\c1ccncc1` (as salt: hydrochloride) [Compound 10a, 4-[(E)-(5-Bromo-2,3-dihydro-1H-indane-1-ylidene)methyl]pyridine Hydrochloride] came in with a melting point of 266 °C.

`Fc1ccc2c(c1)CC/C2=C/c1ccncc1` (as salt: hydrochloride) [Compound 6b, 4-[(Z)-(5-Fluoro-2,3-dihydro-1H-indane-1-ylidene)methyl]pyridine Hydrochloride] displayed a melting point of 223 °C.

In the case of `Cc1cccc2c1CC/C2=C\c1cccnc1` (as salt: hydrochloride) [Compound 23a, 3-[(E)-(4-Methyl-2,3-dihydro-1H-indane-1-ylidene)methyl]pyridine Hydrochloride], the melting point was 231 °C.

The molecule `C(=C1c2ccccc2-c2ccccc21)c1cccnc1.Cl` showed a melting point of 241 °C.

On to `Brc1ccc2c(c1)CC/C2=C\c1cccnc1` (as salt: hydrochloride) [Compound 9a, 3-[(E)-(5-Bromo-2,3-dihydro-1H-indane-1-ylidene)methyl]pyridine Hydrochloride], for which the melting point is 241 °C.

In the case of `Fc1ccc2c(c1)CC/C2=C\c1ccncc1` (as salt: hydrochloride) [Compound 6a, 4-[(E)-(5-Fluoro-2,3-dihydro-1H-indane-1-ylidene)methyl]pyridine Hydrochloride], the melting point came to 224 °C.

In a further data set the target is T1, bovine adrenal CYP11B (Bos taurus, UniProt P15150).
T1 sequence (P15150 25-503): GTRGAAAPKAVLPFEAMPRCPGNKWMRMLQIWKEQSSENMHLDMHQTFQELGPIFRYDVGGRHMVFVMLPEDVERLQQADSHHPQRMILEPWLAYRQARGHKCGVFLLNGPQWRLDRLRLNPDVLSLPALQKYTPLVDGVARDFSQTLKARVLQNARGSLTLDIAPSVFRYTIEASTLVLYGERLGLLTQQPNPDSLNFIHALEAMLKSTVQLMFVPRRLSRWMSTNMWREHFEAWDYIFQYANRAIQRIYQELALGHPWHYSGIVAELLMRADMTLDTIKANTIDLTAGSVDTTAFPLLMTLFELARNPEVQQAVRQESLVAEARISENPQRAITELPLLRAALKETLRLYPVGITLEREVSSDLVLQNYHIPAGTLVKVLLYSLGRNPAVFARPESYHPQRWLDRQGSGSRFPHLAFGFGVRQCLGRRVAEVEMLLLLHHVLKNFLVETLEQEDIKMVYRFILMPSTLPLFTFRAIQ
The data set is described as follows: Percent inhibition of bovine CYP11B (adrenal mitochondria). As to conditions: read-out: % Inhibition bovine bCYP11B, bovine adrenal mitochondria, 1 mg/ml protein; corticosterone substrate 200 μM; inhibitor 1 μM.
Method: Bovine adrenal glands obtained freshly after slaughtering were stored in ice cold Tris-sucrose buffer (0.25 M sucrose, 0.05 M Tris; pH 7.4) until processed. After removing the appending adipose tissue, the adrenal medulla was carefully separated from the adrenal cortex using scissors. The pieces of adrenal cortex were coarsely comminuted with scissors, washed with Tris-sucrose buffer, weighed and finely comminuted in the above buffer (2 ml per g of tissue) with a hand mixer. Thereafter, the tissue was homogenized with an Ultra-Turrax mixer. For separating coarse cell debris and the nuclei, the homogenizate was centrifuged twice for 15 min at 900 g and 4° C. The supernatant was subsequently centrifuged for 35 min at 11,000 g for recovering the mitochondrial fraction. For purifying the mitochondrial fraction, the precipitate was resuspended in Tri-sucrose buffer and again centrifuged at 11,000 g for 35 min. This washing step was performed two times in total. After the last centrifugation, the pellet was resuspended in Tris-sucrose buffer containing 0.001 M EDTA and frozen at −70° C.
The substrate corticosterone was dissolved in methanol and diluted with Tris buffer to a final concentration of 200 μM. The inhibitors were also dissolved in methanol and diluted with buffer to a final concentration of 1 μM. […] Corticosterone (200 μM) was incubated with inhibitor (1 μM) and mitochondrial enzyme (0.5 mg/0.5 ml) with the addition of a regenerating system consisting of NADP^+ (1 mM), glucose-6-phosphate (7 mM) and glucose-6-Phosphate dehydrogenase (1 IU/0.5 ml). Up to 5 inhibitors per test could be incubated in duplicate. […] After preincubation for 5 minutes (30° C.; water bath), the reaction was started by adding mitochondrial suspension. […] The blind values were admixed with 250 μl of HCl before the enzyme was pipetted in. The steroids were separated off by shaking with 1 ml of ethyl acetate (10 min). After centrifugation (15,000 g, 10 min), 900 μl of the organic phase was shaken with 250 μl 1 N NaOH (10 min), and 800 μl of supernatant was again washed with 250 μl of buffer. […] 18-OH-corticosterone (retention time: 10 min) and corticosterone (retention time: 21 min) were separated. The height of the 18-OH-corticosterone peak was used for evaluation. The percent inhibition of the 18-hydroxylation of corticosterone by the inhibitors was based on the mediums of the control incubation, taking the blind values into account.
For the molecule `CC(=O)N1CCN(c2ccc(OCC3COC(Cn4ccnc4)(c4ccc(Cl)cc4Cl)O3)cc2)CC1` (stereo not shown) [Ketoconazole, reference compound], the inhibition at 1 µM amounted to 78%.

The melting point is the temperature, or range, at which the solid turns liquid.
